{"source": "patent US20200222370A1", "about": "“PHARMACEUTICAL COMPOSITION” (KOWA COMPANY, LTD., priority 2017, published 2020)", "key": {"[1]": {"experiment": "pH value of pemafibrate itself dissolved or dispersed in purified water", "assay_type": "physicochemical", "conditions": "pemafibrate 5 μg/mL as free form in purified water", "experimental": "Herein, the “a pH value of a solution produced by dissolving or dispersing a pharmaceutical composition in water” means a value obtained by measuring at 25° C. a pH of a solution produced by dissolving or dispersing a pharmaceutical composition containing pemafibrate, a salt thereof or a solvate thereof in water so that the concentration of pemafibrate in terms of a free form is 5 μg/mL. Incidentally, purified water is used as water. First a measurement of a pH value of pemafibrate itself was performed. To be more specific, pemafibrate was dissolved or dispersed in purified water so that the concentration of pemafibrate as the free form was 5 μg/mL. Then, a pH value of the obtained solution at 25° C. was measured."}, "[2]": {"experiment": "Stability of pemafibrate under different pH environments (buffer solutions, 80° C., 96 hours, HPLC)", "assay_type": "physicochemical", "conditions": "5 μg/mL, 96 hours later", "experimental": "In Test Examples below, measurement was performed through HPLC using an ODS column as a column and an ultraviolet spectrophotometer as a detector. Additionally, the following studies were conducted in order to evaluate the stability of pemafibrate under different pH environments. Namely, buffer solutions were prepared in accordance with the descriptions about buffer solutions of U.S.Pharmacopeia (2013 Edition) and Japanese Pharmacopeia (17th Edition), so as to have the following pH values at 25° C.: pH 2.0 (hydrochloric acid buffer solution including potassium chloride); pH 3.0 and 4.0 (Acid phthalate buffer solution including potassium biphthalate); pH 6.0 and 7.0 (phosphate buffer solution); pH 8.0, 9.0 and 10.0 (Alkaline borate buffer solution including boric acid, potassium chloride and sodium hydroxide); pH 11.0 (Ammonium buffer solution including ammonia and ammonium chloride); and pH 12.0 (phosphate buffer solution). In each of the buffer solutions, pemafibrate was dissolved or dispersed so that its amount as the free form was 5 μg/mL, thereby producing liquid samples having different pH conditions. The liquid samples were stored at 80° C. for 96 hours. The amounts of pemafibrate-derived decomposition products (related substances) in the liquid samples after storage for 96 hours were evaluated through the following method. Specifically, acetonitrile was added to each of the liquid samples, and then they were measured by using HPLC. The sum of peak areas derived from related substances on the chromatogram was calculated in terms of the ratio (%) to the sum of peak areas derived from pemafibrate and related substances, and the ratio was defined as the “Total amount (%) of related substances”."}}}
{"molecule": "CC[C@@H](Oc1cccc(CN(CCCOc2ccc(OC)cc2)c2nc3ccccc3o2)c1)C(=O)O", "note": "[pemafibrate, (2R)-2-[3-([1,3-Benzoxazol-2-yl[3-(4-methoxyphenoxy)propyl]amino]methyl)phenoxy]butanoic acid]", "values": [{"measurement": "pH value (25° C.)", "setting": "[1]", "value": "~5.9"}, {"measurement": "Total amount (%) of related substances", "setting": "[2]; pH 2.0 buffer", "value": 27.1, "unit": "%"}, {"measurement": "Total amount (%) of related substances", "setting": "[2]; pH 3.0 buffer", "value": 4.1, "unit": "%"}, {"measurement": "Total amount (%) of related substances", "setting": "[2]; pH 4.0 buffer", "value": 1.1, "unit": "%"}, {"measurement": "Total amount (%) of related substances", "setting": "[2]; pH 6.0 buffer", "value": 1.3, "unit": "%"}, {"measurement": "Total amount (%) of related substances", "setting": "[2]; pH 7.0 buffer", "value": 0.9, "unit": "%"}, {"measurement": "Total amount (%) of related substances", "setting": "[2]; pH 8.0 buffer", "value": 0.4, "unit": "%"}, {"measurement": "Total amount (%) of related substances", "setting": "[2]; pH 9.0 buffer", "value": "<0.1", "unit": "%"}, {"measurement": "Total amount (%) of related substances", "setting": "[2]; pH 10.0 buffer", "value": 0.1, "unit": "%"}, {"measurement": "Total amount (%) of related substances", "setting": "[2]; pH 11.0 buffer", "value": 0.1, "unit": "%"}, {"measurement": "Total amount (%) of related substances", "setting": "[2]; pH 12.0 buffer", "value": "<0.1", "unit": "%"}]}
